Assay results as given in PubChem BioAssay AID1845211 (Molecular Pharmacology Branch, DTP, NCI, 2023).
Values joined by “and” are separate entries in the source; they are usually repeats but may differ in a detail not shown here. Equal values may be shown once.

Test system: NCI-H322M multicellular tumor spheroids, viability (% test/control)
Test: Anticancer human tumor NCI-H322M cell line growth inhibition;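 on viability, T/C: spheroids exposed to compound for seven days before readout; 100% = DMSO vehicle control wells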
Settings: for viability, T/C: stronger effect = lower value
Outline: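 Complex tumor spheroids combined malignant cells with endothelial cells and mesenchymal stem cells. DNA-damaging drugs and DNA repair inhibitors were tested alone and in combination, at half-log dilutions down from clinical Cmax (top 10 microM if Cmax unknown), 0.25% DMSO final.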

[1] = curve of first compound, second compound 30 pM
[2] = curve of first compound, second compound 94.9 pM
[3] = curve of first compound, second compound 0.0003 µM
[4] = curve of first compound, second compound 0.000949 µM
[5] = curve of first compound, second compound 0.003 µM

CC(C)n1c(=O)n(C)c2cnc3cc(F)c(-c4ccc(OCCCN5CCCCC5)nc4)cc3c21 + Cn1nnc2c(C(N)=O)ncn2c1=O
IC50 (curve of first compound, second compound 1 µM): > 10 µM
IC50 (curve of first compound, second compound 3.16 µM): > 10 µM
IC50 (curve of first compound, second compound 10 µM): > 10 µM
IC50 (curve of first compound, second compound 31.6 µM): > 10 µM
IC50 (curve of first compound, second compound 100 µM): > 10 µM
viability, T/C (second compound 1 µM, first compound 0.0316 µM): 86.7%
viability, T/C (second compound 1 µM, first compound 0.1 µM): 82.1%
viability, T/C (second compound 1 µM, first compound 0.316 µM): 85%
viability, T/C (second compound 1 µM, first compound 1 µM): 95.4%
viability, T/C (second compound 1 µM, first compound 3.16 µM): 92%
viability, T/C (second compound 1 µM, first compound 10 µM): 77.9%
viability, T/C (second compound 3.16 µM, first compound 0.0316 µM): 83.8%
viability, T/C (second compound 3.16 µM, first compound 0.1 µM): 70.6%
viability, T/C (second compound 3.16 µM, first compound 0.316 µM): 83.1%
viability, T/C (second compound 3.16 µM, first compound 1 µM): 78.7%
viability, T/C (second compound 3.16 µM, first compound 3.16 µM): 81.3%
viability, T/C (second compound 3.16 µM, first compound 10 µM): 82.5%
viability, T/C (second compound 10 µM, first compound 0.0316 µM): 76.8%
viability, T/C (second compound 10 µM, first compound 0.1 µM): 84.7%
viability, T/C (second compound 10 µM, first compound 0.316 µM): 89.4%
viability, T/C (second compound 10 µM, first compound 1 µM): 98.5%
viability, T/C (second compound 10 µM, first compound 3.16 µM): 96.4%
viability, T/C (second compound 10 µM, first compound 10 µM): 79.1%
viability, T/C (second compound 31.6 µM, first compound 0.0316 µM): 94.9%
viability, T/C (second compound 31.6 µM, first compound 0.1 µM): 74.8%
viability, T/C (second compound 31.6 µM, first compound 0.316 µM): 81.9%
viability, T/C (second compound 31.6 µM, first compound 1 µM): 85.2%
viability, T/C (second compound 31.6 µM, first compound 3.16 µM): 98.2%
viability, T/C (second compound 31.6 µM, first compound 10 µM): 84.7%
viability, T/C (second compound 100 µM, first compound 0.0316 µM): 85%
viability, T/C (second compound 100 µM, first compound 0.1 µM): 93.4%
viability, T/C (second compound 100 µM, first compound 0.316 µM): 82.1%
viability, T/C (second compound 100 µM, first compound 1 µM): 88.5%
viability, T/C (second compound 100 µM, first compound 3.16 µM): 83%
viability, T/C (second compound 100 µM, first compound 10 µM): 87%

Cc1cc(C)c(CNC(=O)c2cc(-c3ccc(CN4CCOCC4)cc3)cc3c2cnn3C2CCCC2)c(=O)[nH]1 + COc1cc2c(cc1O)CCNC21CSC2c3c(OC(C)=O)c(C)c4c(c3C(COC1=O)N1C(O)C3Cc5cc(C)c(OC)c(O)c5C(C21)N3C)OCO4
IC50 [1]: > 10 µM
IC50 [2]: > 10 µM
IC50 [3]: > 10 µM
IC50 [4]: > 10 µM
IC50 [5]: < 0.0316 µM
viability, T/C (second compound 30 pM, first compound 0.0316 µM): 84.6%
viability, T/C (second compound 30 pM, first compound 0.1 µM): 97.8%
viability, T/C (second compound 30 pM, first compound 0.316 µM): 87.1%
viability, T/C (second compound 30 pM, first compound 1 µM): 97.9%
viability, T/C (second compound 30 pM, first compound 3.16 µM): 99.6%
viability, T/C (second compound 30 pM, first compound 10 µM): 114%
viability, T/C (second compound 94.9 pM, first compound 0.0316 µM): 92.8%
viability, T/C (second compound 94.9 pM, first compound 0.1 µM): 90.9%
viability, T/C (second compound 94.9 pM, first compound 0.316 µM): 92%
viability, T/C (second compound 94.9 pM, first compound 1 µM): 84.4%
viability, T/C (second compound 94.9 pM, first compound 3.16 µM): 89.5%
viability, T/C (second compound 94.9 pM, first compound 10 µM): 130%
viability, T/C (second compound 0.0003 µM, first compound 0.0316 µM): 96.6%
viability, T/C (second compound 0.0003 µM, first compound 0.1 µM): 98.1%
viability, T/C (second compound 0.0003 µM, first compound 0.316 µM): 98.2%
viability, T/C (second compound 0.0003 µM, first compound 1 µM): 95.3%
viability, T/C (second compound 0.0003 µM, first compound 3.16 µM): 108%
viability, T/C (second compound 0.0003 µM, first compound 10 µM): 126%
viability, T/C (second compound 0.000949 µM, first compound 0.0316 µM): 92.4%
viability, T/C (second compound 0.000949 µM, first compound 0.1 µM): 92.2%
viability, T/C (second compound 0.000949 µM, first compound 0.316 µM): 87.9%
viability, T/C (second compound 0.000949 µM, first compound 1 µM): 96.2%
viability, T/C (second compound 0.000949 µM, first compound 3.16 µM): 82%
viability, T/C (second compound 0.000949 µM, first compound 10 µM): 97.8%
viability, T/C (second compound 0.003 µM, first compound 0.0316 µM): 17.8%
viability, T/C (second compound 0.003 µM, first compound 0.1 µM): 8.17%
viability, T/C (second compound 0.003 µM, first compound 0.316 µM): 12.3%
viability, T/C (second compound 0.003 µM, first compound 1 µM): 6.05%
viability, T/C (second compound 0.003 µM, first compound 3.16 µM): 2.7%
viability, T/C (second compound 0.003 µM, first compound 10 µM): 3.51%

[2H]c1nc(C)nc([2H])c1-c1cc(NC[C@@H](C)c2cccc3c(C(=O)NC)ccnc23)ncn1
viability, T/C (compound 0.0316 µM): 78.5% and 92.3% and 103%
viability, T/C (compound 0.1 µM): 84.9% and 85.2% and 114%
viability, T/C (compound 0.316 µM): 81% and 104% and 97.4%
viability, T/C (compound 1 µM): 85.9% and 101% (2×)
viability, T/C (compound 3.16 µM): 84.4% and 87.3% and 106%
viability, T/C (compound 10 µM): 88.4% and 85.9% and 108%
IC50 (curve of compound): > 10 µM

CNCc1ccc(-c2cc(-c3nc(-c4ccc(S(=O)(=O)C(C)C)cc4)cnc3N)on2)cc1 + COc1cc2c(cc1O)CCNC21CSC2c3c(OC(C)=O)c(C)c4c(c3C(COC1=O)N1C(O)C3Cc5cc(C)c(OC)c(O)c5C(C21)N3C)OCO4
IC50 [1]: > 3 µM
IC50 [2]: > 3 µM
IC50 [3]: > 3 µM
IC50 [4]: 0.479 µM
IC50 [5]: < 0.00949 µM
viability, T/C (second compound 30 pM, first compound 0.00949 µM): 98.7%
viability, T/C (second compound 30 pM, first compound 0.03 µM): 102%
viability, T/C (second compound 30 pM, first compound 0.0949 µM): 82.5%
viability, T/C (second compound 30 pM, first compound 0.3 µM): 76.4%
viability, T/C (second compound 30 pM, first compound 0.949 µM): 69.5%
viability, T/C (second compound 30 pM, first compound 3 µM): 70%
viability, T/C (second compound 94.9 pM, first compound 0.00949 µM): 95.5%
viability, T/C (second compound 94.9 pM, first compound 0.03 µM): 80.2%
viability, T/C (second compound 94.9 pM, first compound 0.0949 µM): 85.6%
viability, T/C (second compound 94.9 pM, first compound 0.3 µM): 73.4%
viability, T/C (second compound 94.9 pM, first compound 0.949 µM): 66.4%
viability, T/C (second compound 94.9 pM, first compound 3 µM): 66.1%
viability, T/C (second compound 0.0003 µM, first compound 0.00949 µM): 85.7%
viability, T/C (second compound 0.0003 µM, first compound 0.03 µM): 85.8%
viability, T/C (second compound 0.0003 µM, first compound 0.0949 µM): 77.8%
viability, T/C (second compound 0.0003 µM, first compound 0.3 µM): 60.5%
viability, T/C (second compound 0.0003 µM, first compound 0.949 µM): 59.4%
viability, T/C (second compound 0.0003 µM, first compound 3 µM): 59.2%
viability, T/C (second compound 0.000949 µM, first compound 0.00949 µM): 81.9%
viability, T/C (second compound 0.000949 µM, first compound 0.03 µM): 76.9%
viability, T/C (second compound 0.000949 µM, first compound 0.0949 µM): 71.4%
viability, T/C (second compound 0.000949 µM, first compound 0.3 µM): 51.9%
viability, T/C (second compound 0.000949 µM, first compound 0.949 µM): 47.3%
viability, T/C (second compound 0.000949 µM, first compound 3 µM): 44.4%
viability, T/C (second compound 0.003 µM, first compound 0.00949 µM): 9.27%
viability, T/C (second compound 0.003 µM, first compound 0.03 µM): 10.9%
viability, T/C (second compound 0.003 µM, first compound 0.0949 µM): 10.1%
viability, T/C (second compound 0.003 µM, first compound 0.3 µM): 9.72%
viability, T/C (second compound 0.003 µM, first compound 0.949 µM): 12.4%
viability, T/C (second compound 0.003 µM, first compound 3 µM): 7.67%

O=C(c1cc(Cc2n[nH]c(=O)c3ccccc23)ccc1F)N1CCN(C(=O)C2CC2)CC1
viability, T/C (compound 0.0949 µM): 107% and 88% and 75.1%
viability, T/C (compound 0.3 µM): 98.5% and 83.7% and 107%
viability, T/C (compound 0.949 µM): 118% and 98.6% and 101%
viability, T/C (compound 3 µM): 97.2% and 80.6% and 97.6%
viability, T/C (compound 9.49 µM): 97% and 89.6% and 92.4%
viability, T/C (compound 30 µM): 103% and 87% and 104%
IC50 (curve of compound): > 30 µM
